Laboratory results as given in patent US8470822B2, “Folate mimetics and folate-receptor binding conjugates thereof” (Purdue Research Foundation, priority 2001, dated 2013).

Legend:
[1] = target: T1, folate receptor on KB cells (Homo sapiens, UniProt P15328); assay: Relative binding affinity: competition with 3H-folic acid for binding to KB cells; settings: 100 nM 3H-folic acid, 15 minutes on ice; for relative binding activity compared to folic acid: folic acid set to 1; for EC50: read-out: EC50 (displacement of 3H-folic acid bound to folate receptor)
T1 construct: host or cells: KB cells (intact, trypsinized, suspended)
Description: Relative binding affinity. […] The relative affinity of various folate derivatives was determined according to the method described by Westerhoff et al. (Mol. Pharm., 1995, 48:459-471) with slight modification. Briefly, folate receptor-positive KB cells were gently trypsinized in 0.25% trypsin in phosphate-buffered saline (PBS) at room temperature for 3 minutes and then diluted in folate-free RPMI 1640 media (FFRPMI) (Gibco) supplemented with 10% heat-inactivated fetal calf serum. Following a 5 minute 800×g spin and one PBS wash, the final cell pellet was suspended in FFRPMI (no serum). […] Samples were centrifuged at 10,000×g for 5 minutes, cell pellets were suspended in buffer, transferred to individual vials containing 5 mL of scintillation cocktail, and then counted for radioactivity.
Binding activity. The binding activity of pteroyl hydrazide and pteroylhydrazido-BTCA-DAS was determined using the assay described in Example IV.

[2] = system: folate-receptor-positive human KB cell tumor xenografts; assay: Biodistribution of 111In radiotracer in KB tumor-bearing athymic mice after intravenous administration; assay type: in vivo
Description: Our primary animal model for evaluation of the biodistribution and pharmacokinetics of folate-receptor-targeted radiopharmaceuticals has been athymic mice bearing subcutaneously implanted folate-receptor-positive human KB cell tumors. […] After 3 weeks on folate-free diet, mouse serum folate levels drop to 25±7 nM from the initial 720±260 nM serum folate level when the animals are fed normal rodent chow. This dietary intervention is believed to be a reasonable manipulation of the animal model, since the mice would have serum folate levels only slightly higher than the folate concentration of normal human serum. Thus, in these mouse biodistribution studies the radiotracer is competing for tumor folate receptors with physiologically relevant concentrations of endogenous unlabeled serum folate.
The substantial retention of ^111In in the kidneys is fully consistent with the binding of ^111In-CYK4-013 to tissue folate receptors, since the renal proximal tubule is a known normal tissue site of folate receptor expression. […] The behavior of the ^111In-CYK4-013 radiopharmaceutical in this animal model (Table 2) is very similar to that observed for ^111In-DTPA-Folate (Table 3).
Results. Similar to ^111In-DTPA-Folate, ^111In-CYK4-013 selectively localized in the folate-receptor-positive tumor xenografts, and afforded prolonged tumor retention of ^111In (5.4±0.8; 5.5±1.1; and 3.6±0.6% ID/g at 1 hour, 4 hours, and 24 hours, respectively) (Table 2). […] Blockable binding was also observed in the kidneys, where the folate receptor occurs in the proximal tubules.

[3] = 4 Hours Post Injection BLOCKED, Folic Acid Dose 495 ± 79 μg/kg, n = 4

T1 sequence (P15328 25-234): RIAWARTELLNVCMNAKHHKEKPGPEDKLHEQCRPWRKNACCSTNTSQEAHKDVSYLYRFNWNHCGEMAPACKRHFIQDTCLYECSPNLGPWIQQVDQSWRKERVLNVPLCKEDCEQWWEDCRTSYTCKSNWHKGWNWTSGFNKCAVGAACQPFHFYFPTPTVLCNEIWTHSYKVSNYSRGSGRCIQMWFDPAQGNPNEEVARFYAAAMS

## Nc1nc(O)c2nc(CNc3ccc(C(=O)O[C@H](C(=O)O)c4ccccc4)cc3)cnc2n1 [ACBP, (S)-α-carboxybenzoyl pteroate]
[1]
  relative binding activity compared to folic acid: 0.46
  EC50: 204 nM

## Nc1nc2ncc(CNc3ccc(C(=O)NC(C(=O)O)c4ccccn4)cc3)nc2c(=O)[nH]1 (stereo not drawn) [Pte-AP, N-pteroyl-2-amino-2-carboxymethylpyridine]
[1]
  relative binding activity compared to folic acid: 0.48
  EC50: 193 nM

## NNC(=O)c1ccc(NCc2cnc3nc(N)nc(O)c3n2)cc1 [Pteroyl hydrazide, pteroyl hydrazide]
[1]
  relative binding activity compared to folic acid: 0.74
  EC50: 94 nM

## Nc1nc2ncc(CNc3ccc(C(=O)N[C@@H](CCC(=O)NCCNC(=O)CN(CCN(CCN(CC(=O)[O-])CC(=O)[O-])CC(=O)[O-])CC(=O)[O-])C(=O)O)cc3)nc2c(=O)[nH]1.[111In] [^111In-DTPA-Folate, reference compound]
[2]; 1 Hour Post Injection, n = 4
  Percentage of Injected 111In Dose Per Gram: Blood: 0.14 ± 0.03 % ID/g
  Percentage of Injected 111In Dose Per Gram: Heart: 2.3 ± 0.4 % ID/g
  Percentage of Injected 111In Dose Per Gram: Kidney: 90 ± 9 % ID/g
  Percentage of Injected 111In Dose Per Gram: Liver & Gall Bladder: 4.0 ± 1.5 % ID/g
  Percentage of Injected 111In Dose Per Gram: Lungs: 1.3 ± 0.1 % ID/g
  Percentage of Injected 111In Dose Per Gram: Muscle: 3.5 ± 0.8 % ID/g
  Percentage of Injected 111In Dose Per Gram: Spleen: 0.36 ± 0.03 % ID/g
  Percentage of Injected 111In Dose Per Gram: Stomach, Intestines & Contents: 1.0 ± 0.2 % ID/g
  Percentage of Injected 111In Dose Per Gram: Tumor: 5.3 ± 0.4 % ID/g
  Tumor/blood ratio: 38 ± 7
  Tumor/kidney ratio: 0.060 ± 0.011
  Tumor/liver ratio: 1.5 ± 0.5
  Tumor/muscle ratio: 1.6 ± 0.3
[2]; 4 Hours Post Injection BLOCKED, Folic Acid Dose 495 ± 79 μg/kg
  Tumor/kidney ratio: 0.050 ± 0.023
[2]; 4 Hours Post Injection BLOCKED, Folic Acid Dose 495 ± 79 μg/kg, n = 3, anomalous animal excluded
  Percentage of Injected 111In Dose Per Gram: Kidney: 2.3 ± 1.0 % ID/g
[2]; [3]
  Percentage of Injected 111In Dose Per Gram: Blood: 0.029 ± 0.011 % ID/g
  Percentage of Injected 111In Dose Per Gram: Heart: 0.022 ± 0.010 % ID/g
  Percentage of Injected 111In Dose Per Gram: Liver & Gall Bladder: 0.12 ± 0.03 % ID/g
  Percentage of Injected 111In Dose Per Gram: Lungs: 0.065 ± 0.021 % ID/g
  Percentage of Injected 111In Dose Per Gram: Muscle: 0.023 ± 0.013 % ID/g
  Percentage of Injected 111In Dose Per Gram: Spleen: 0.060 ± 0.021 % ID/g
  Percentage of Injected 111In Dose Per Gram: Stomach, Intestines & Contents: 0.49 ± 0.20 % ID/g
  Percentage of Injected 111In Dose Per Gram: Tumor: 0.16 ± 0.07 % ID/g
  Tumor/blood ratio: 5.5 ± 0.8
  Tumor/liver ratio: 1.4 ± 0.4
  Tumor/muscle ratio: 8.4 ± 3.8
[2]; 4 Hours Post Injection, n = 4
  Percentage of Injected 111In Dose Per Gram: Blood: 0.064 ± 0.007 % ID/g
  Percentage of Injected 111In Dose Per Gram: Heart: 2.0 ± 0.3 % ID/g
  Percentage of Injected 111In Dose Per Gram: Kidney: 85 ± 12 % ID/g
  Percentage of Injected 111In Dose Per Gram: Liver & Gall Bladder: 2.2 ± 0.4 % ID/g
  Percentage of Injected 111In Dose Per Gram: Lungs: 1.1 ± 0.3 % ID/g
  Percentage of Injected 111In Dose Per Gram: Muscle: 2.9 ± 0.7 % ID/g
  Percentage of Injected 111In Dose Per Gram: Spleen: 0.35 ± 0.11 % ID/g
  Percentage of Injected 111In Dose Per Gram: Stomach, Intestines & Contents: 1.0 ± 0.2 % ID/g
  Percentage of Injected 111In Dose Per Gram: Tumor: 6.8 ± 1.2 % ID/g
  Tumor/blood ratio: 106 ± 15
  Tumor/kidney ratio: 0.080 ± 0.012
  Tumor/liver ratio: 3.3 ± 1.1
  Tumor/muscle ratio: 2.5 ± 0.9
